Marks after values point to notes of the source that are not given here.
Experiments:
[1] = Cyclic voltammetry (CV) of anolyte candidates in a three-electrode cell; assay type: physicochemical; settings: for ipc1/ipa1 (10 mV/s) / ipc1/ipa1 (100 mV/s) / E1^0: 0.01M substrate, 0.10M support; for ipc1/ipa1 (10 mV/s) / ipc1/ipa1 (100 mV/s): 2nd cycle; for E1^0: Ag/Ag+ reference, (E1c+E1a)/2, — = no anodic current observed; for reversibility of redox couple: 10 mV/s (slower scan rates); for reduction within the electrochemical window of MeCN: MeCN with NBu4BF4; for reduction potential: MeCN with NBu4BF4 (TBABF4) supporting electrolyte, versus Ag/Ag+; for reversibility of reduction: scan rate not specified; for current peak-height ratios: low potential couples in TBABF4 supports
Method: The electrochemistry of a series of heteroarenes was evaluated by cyclic voltammetry (CV). Electrochemical analysis was performed in the absence of oxygen and moisture. The experiments were conducted in a three-electrode cell comprised of a glassy carbon working electrode, a platinum counter electrode, and a Ag/Ag^+ reference electrode. The CV of each anolyte candidate was initially conducted in acetonitrile (MeCN) with tetrabutylammonium tetrafluoroborate (TBABF4) as the supporting electrolyte.
The reversibility of each redox couple in the CV was estimated by calculating the ratio of the diffusion-limited peak-heights of the cathodic (ipc) and anodic (ipa) currents (FIG. 2). The current peak heights were determined from the second CV cycle, and are all reported following deconvolution of the current-potential plot. […] In addition, […] conducted at slow scan rates allows for an extended lifetime of the reduced species (FIG. 2, 10 mV/s scan). With longer lifetimes, the concentration of charged anolytes that are susceptible to irreversible chemical or electrochemical reactions will decrease, and lower current responses upon re-oxidation will be observed. As a result, redox couples measured at slow scan rates generally occur with current peak-height ratios that deviate from unity to a greater extent than couples measured at faster scan rates. Thus, these techniques provide a method to rapidly assess and compare a range of anolyte materials.

[2] = as above; assay type: physicochemical; settings: for ipc1/ipa1 (10 mV/s) / ipc2/ipa2 (10 mV/s) / ipc1/ipa1 (100 mV/s): 2nd cycle; for ipc2/ipa2 (10 mV/s): second couple; for reversibility of redox couple: MeCN/TBABF4
[3] = MeCN/LiBF4, 0.01M substrate, 0.10M support
[4] = MeCN/LiBF4, 0.01M substrate, 0.10M support, (E1c+E1a)/2, — = no anodic current observed
[5] = MeCN/LiBF4, 0.01M substrate, 0.10M support, (E2c+E2a)/2
[6] = MeCN/LiBF4, CV measured at 200 mV/s scan rate
[7] = PC/LiBF4, 0.01M substrate, 0.10M support
[8] = PC/TBABF4, 0.01M substrate, 0.10M support

| Structure (SMILES) | ipc1/ipa1 (10 mV/s) ([1]; MeCN/TBABF4) | ipc1/ipa1 (100 mV/s) ([1]; MeCN/TBABF4) | E1^0 ([1]; MeCN/TBABF4) [V] | ipc1/ipa1 (100 mV/s) ([1]; MeCN/LiBF4) | ipc1/ipa1 (10 mV/s) [2, 3] | E1^0 [2, 4] [V] | further results |
| --- | --- | --- | --- | --- | --- | --- | --- |
| CCOC(=O)c1ccncc1 [Compound 3b] | 1.28 | 1.03 | −2.20 | – | – | – | – |
| COC(=O)c1cc[n+]([O-])cc1 [Compound 4a] | 1.41 | 1.05 | −1.96 | >5 | >5 | – | – |
| CC[n+]1ccc(C(=O)OC(C)(C)C)cc1 [Compound 7d] | – | – | – | – | 0.99 | −1.15 | ipc2/ipa2 (10 mV/s) [2, 3]: 0.93; E2^0 [2, 5]: −1.93 V; E1^0 [2, 6]: −1.14 V; E2^0 [2, 6]: −1.92 V; ipc1/ipa1 [2, 6]: 1.09^f; ipc2/ipa2 [2, 6]: 1.38^f |
| COC(=O)c1ccccn1 [Compound 1a, Methyl picolinate] | >5 | 1.83 | −2.36 | – | – | – | reversibility of redox couple ([1]; MeCN/TBABF4): completely irreversible; reversibility of redox couple ([2]; 100 mV/s): quasi-reversible |
| COC(=O)c1ccncc1 [Compound 3a, methyl isonicotinate] | 1.67 | 1.15 | −2.16 | >5 | >5 | – | reversibility of redox couple ([1]; MeCN/TBABF4): reversible; ipc1/ipa1 (10 mV/s) [2, 7]: >5; ipc1/ipa1 (100 mV/s) [2, 7]: >5; E1^0 [2, 8]: −2.62 V; ipc1/ipa1 (10 mV/s) [2, 8]: 2.02; ipc1/ipa1 (100 mV/s) [2, 8]: 1.35 |
| CCOC(=O)c1cc[n+](CC)cc1.[I-] [Compound 6b] | – | – | – | – | 0.98 | −1.10 | ipc2/ipa2 (10 mV/s) [2, 3]: 0.94; E2^0 [2, 5]: −1.86 V |
| CN(C)C(=O)c1ccncc1 [Compound 3e] | >5 | 1.18 | −2.52 | – | – | – | reversibility of redox couple ([1]; MeCN/TBABF4): irreversible; reversibility of redox couple ([2]; 100 mV/s): quasi-reversible |
| CC(C)OC(=O)c1cc[n+]([O-])cc1 [Compound 4c] | – | – | – | >5 | >5 | – | – |
| Cc1ccccn1 [2-methylpyridine, reference compound] | – | – | – | – | – | – | reduction within the electrochemical window of MeCN [1]: no reduction was observed |
| CC[n+]1ccc(C(=O)OC)cc1 [Compound 7a] | – | – | – | – | 0.98 | −1.11 | high potential peak ([1]; MeCN, TBABF4 as the electrolyte): no high potential peak is observed; anodic peak with no corresponding cathodic current ([2]; MeCN, 0.1 M LiBF4, 200 mV/s, +1 V to −2.5 V): +0.4 V; ipc2/ipa2 (10 mV/s) [2, 3]: 0.96; E2^0 [2, 5]: −1.88 V; E1^0 [2, 6]: −1.12 V; ipc1/ipa1 [2, 6]: 1.02^f; ipc2/ipa2 [2, 6]: 1.08^f; current peaks at positive potentials ([2]; MeCN/LiBF4, lower scanning limit −1.4 V or −0.5 V): no current peaks were observed; high potential peak ([2]; MeCN, LiTFSI as the support): only a small high potential peak |
| CC[n+]1ccc(C(=O)OC)cc1 [Compound 8a] | – | – | – | – | 0.98 | −1.11 | ipc2/ipa2 (10 mV/s) [2, 3]: 0.95; E2^0 [2, 5]: −1.89 V |
| CCOC(=O)c1cc[n+]([B-](F)(F)F)cc1 [Compound 5b] | – | – | – | 1.06 | 1.08 | −1.80 | – |
| COc1ccnc(-c2cc(OC)ccn2)c1 [4,4′-methoxy bipyridine, reference compound] | – | – | – | – | – | – | reduction potential [1]: −2.6 V; reversibility of reduction ([1]; MeCN/TBABF4): reversibly |
| CC(C)(C)OC(=O)c1cc[n+]([B-](F)(F)F)cc1 [Compound 5d] | 1.05 | 1.03 | −1.45 | 1.06 | 1.11 | −1.84 | current peak-height ratios [1]: approaching unity; re-oxidation after the second reduction ([2]; LiBF4 supporting electrolyte, 100 mV/s, scanned to more negative potentials): Minimal re-oxidation |
| CCOC(=O)c1cc[n+](CC)cc1 [Compound 7b] | – | – | – | – | 0.99 | −1.11 | ipc2/ipa2 (10 mV/s) [2, 3]: 0.96; E2^0 [2, 5]: −1.90 V |
| CC(C)OC(=O)c1ccncc1 [Compound 3c] | 1.10 | 1.02 | −2.20 | – | – | – | – |
| CC[n+]1ccc(C(=O)OC)cc1.[I-] [Compound 6a] | – | – | – | – | 0.99 | −1.11 | ipc2/ipa2 (10 mV/s) [2, 3]: 0.95; E2^0 [2, 5]: −1.85 V |
| CC[n+]1ccc(C(=O)OC(C)C)cc1 [Compound 7c] | – | – | – | – | 0.97 | −1.13 | ipc2/ipa2 (10 mV/s) [2, 3]: 0.95; E2^0 [2, 5]: −1.89 V |
| CC(C)(C)OC(=O)c1cc[n+]([O-])cc1 [Compound 4d] | 1.17 | 1.00 | −2.01 | >5 | >5 | – | – |
| O=C(OC(C(F)(F)F)C(F)(F)F)c1ccncc1 [Compound 3h] | >5 | >5 | – | – | – | – | reduction potential [1]: approximately −2.0 V; reversibility of reduction ([1]; MeCN/TBABF4): highly irreversible |
| N#CCOC(=O)c1ccncc1 [Compound 3f] | >5 | >5 | – | – | – | – | reduction potential [1]: approximately −2.0 V; reversibility of reduction ([1]; MeCN/TBABF4): highly irreversible |
| COC(=O)c1cccnc1 [Compound 2a, methyl nicotinate] | >5 | >5 | – | – | – | – | reversibility of reduction ([1]; MeCN/TBABF4): No re-oxidation current was observed |
| COC(=O)c1cc[n+]([B-](F)(F)F)cc1 [Compound 5a] | 1.10 | 1.03 | −1.42 | 1.02 | 1.06 | −1.83 | current peak-height ratios [1]: approaching unity |
| CCOC(=O)c1cc[n+]([O-])cc1 [Compound 4b] | – | – | – | >5 | >5 | – | – |
| CC(C)(C)OC(=O)c1ccncc1 [Compound 3d] | 1.09 | 1.01 | −2.24 | – | – | – | reversible reduction processes ([2]; LiBF4 support, scan rates between 10 and 500 mV/s, acetonitrile or propylene carbonate): No reversible reduction processes were observed |
| CC(C)OC(=O)c1cc[n+]([B-](F)(F)F)cc1 [Compound 5c] | – | – | – | 1.06 | 1.09 | −1.80 | – |
| COc1ccncc1 [4-methoxypyridine, reference compound] | – | – | – | – | – | – | reduction within the electrochemical window of MeCN [1]: no reduction was observed |
| Cc1ccncc1 [4-methylpyridine, reference compound] | – | – | – | – | – | – | reduction within the electrochemical window of MeCN [1]: no reduction was observed |
| COc1ccccn1 [2-methoxypyridine, reference compound] | – | – | – | – | – | – | reduction within the electrochemical window of MeCN [1]: no reduction was observed |
| O=C(OCC(F)(F)F)c1ccncc1 [Compound 3g] | >5 | 1.91 | −2.03 | – | – | – | reduction potential [1]: approximately −2.0 V; reversibility of reduction ([1]; MeCN/TBABF4): highly irreversible |

Reference: US11056705B2, “Organic anolyte materials for flow batteries” (THE REGENTS OF THE UNIVERSITY OF MICHIGAN, priority 2015, dated 2021)
